Test results published in patent US20180148418A1, “AMIDO-SUBSTITUTED CYCLOHEXANE DERIVATIVES” (Bayer Pharma Aktiengesellschaft, priority 2015, published 2018).

Tests used:
[1] = tested on: wildtype Wnt signaling cascade; experiment: HEK293 TOP assay (Super TopFlash luciferase reporter, Wnt-3a stimulated); assay type: cell-based; conditions: Homo sapiens, HEK293, 16 h, HEK293 TOP reporter cells, Wnt3a at EC50, 16 hours
Summary of the method: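 HEK293 cells stably carrying Super TopFlash (TOP) run in parallel with FOP cells, 10000/well plated 24 h ahead, stimulated with recombinant human Wnt-3a. Compounds tested 50 μM to 15 nM in 3.16-fold steps in CAFTY buffer pH 7.4 with 2 mM Ca^2+ and 0.01% BSA; luciferase read-out.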

[2] = tested on: HEK293 cells cotransfected with the FOP control vector; experiment: HEK293 FOP assay (control reporter with non-functional TCF elements); assay type: cell-based; conditions: Homo sapiens, 16 hours
Summary of the method: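 Stable HEK293 line carrying FOP control reporter (randomized non-functional TCF sites, with pcDNA3), Geneticin-selected, plated 24 h before assay. Stimulated with recombinant human Wnt-3a (2500-5 ng/ml) and compounds 50 μM–15 nM (3.16-fold steps) in CAFTY buffer pH 7.4 with 2 mM Ca2+, 0.01% BSA, run parallel to TOP line.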

TNKS2 = target: T1, TNKS2 (Homo sapiens, UniProt Q9H2K2); experiment: TNKS2 Assay B (auto-parsylation, [3H]-NAD+ SPA); assay type: biochemical; conditions: 6 nM TNKS2, auto-parsylation, over night at room temperature
T1 construct: purchased BPS Bioscience, San Diego, USA 80572 (TNKS2 Histone Ribosylation Assay Kit)
T1 sequence (Q9H2K2 1-1166): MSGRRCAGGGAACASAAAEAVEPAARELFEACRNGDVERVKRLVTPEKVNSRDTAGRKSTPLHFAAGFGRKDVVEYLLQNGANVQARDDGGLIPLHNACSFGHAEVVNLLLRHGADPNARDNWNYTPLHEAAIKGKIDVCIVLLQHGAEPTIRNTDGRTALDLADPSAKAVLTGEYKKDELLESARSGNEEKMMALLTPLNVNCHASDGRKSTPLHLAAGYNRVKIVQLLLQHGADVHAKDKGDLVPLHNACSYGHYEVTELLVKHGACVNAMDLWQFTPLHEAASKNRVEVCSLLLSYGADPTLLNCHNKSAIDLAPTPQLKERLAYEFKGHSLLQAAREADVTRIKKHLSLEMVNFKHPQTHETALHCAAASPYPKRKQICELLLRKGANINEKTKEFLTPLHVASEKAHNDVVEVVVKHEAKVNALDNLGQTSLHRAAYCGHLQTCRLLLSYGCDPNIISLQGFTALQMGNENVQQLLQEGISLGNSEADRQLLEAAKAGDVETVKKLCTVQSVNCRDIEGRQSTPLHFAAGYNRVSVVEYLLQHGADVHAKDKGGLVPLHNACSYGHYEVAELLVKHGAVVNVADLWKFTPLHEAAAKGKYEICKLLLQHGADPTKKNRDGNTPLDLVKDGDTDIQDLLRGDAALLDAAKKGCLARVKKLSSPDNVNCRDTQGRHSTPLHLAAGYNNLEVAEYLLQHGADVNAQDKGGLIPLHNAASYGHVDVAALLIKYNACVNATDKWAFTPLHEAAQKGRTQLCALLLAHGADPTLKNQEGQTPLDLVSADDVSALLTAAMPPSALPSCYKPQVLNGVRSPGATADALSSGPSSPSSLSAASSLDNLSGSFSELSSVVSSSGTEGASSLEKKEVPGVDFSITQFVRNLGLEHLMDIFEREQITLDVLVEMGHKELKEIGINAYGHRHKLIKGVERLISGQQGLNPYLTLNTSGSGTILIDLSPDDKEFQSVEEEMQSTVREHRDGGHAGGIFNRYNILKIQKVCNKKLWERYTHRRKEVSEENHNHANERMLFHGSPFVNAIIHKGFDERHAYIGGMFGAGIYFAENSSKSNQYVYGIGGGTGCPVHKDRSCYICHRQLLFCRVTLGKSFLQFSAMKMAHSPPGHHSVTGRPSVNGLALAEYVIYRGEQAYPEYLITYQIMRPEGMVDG

| IC50 [1] [µM] | IC50 (TNKS2) [µM] | Structure (SMILES) | IC50 [2] [µM] |
| --- | --- | --- | --- |
| 1.9 | 2.7 | COC(C)(C)CNC(=O)c1nc[nH]c1C(=O)N[C@H]1CC[C@H](C(=O)Nc2cc(N3CCOCC3)ccc2Cl)CC1 [Example 90, N^5-(trans-4-{[2-chloro-5-(morpholin-4-yl)phenyl]carbamoyl}cyclohexyl)-N^4-(2-methoxy-2-methylpropyl)-1H-imidazole-4,5-dicarboxamide] | 33 |
| 0.1 | 0.22 | CC(C)(O)CNC(=O)c1nc[nH]c1C(=O)N[C@H]1CC[C@@]2(CCN(c3cccc(Cl)c3)C2=O)CC1 [Example 284, N^5-[(trans)-2-(3-chlorophenyl)-1-oxo-2-azaspiro[4.5]dec-8-yl]-N^4-(2-hydroxy-2-methylpropyl)-1H-imidazole-4,5-dicarboxamide] | 6.8 |
| 0.092 | 0.38 | COCC(C)NC(=O)c1nc[nH]c1C(=O)N[C@H]1CC[C@@]2(CCN(c3cccc(Cl)c3)C2=O)CC1 (stereo partly drawn) [Example 285, N^5-[(trans)-2-(3-chlorophenyl)-1-oxo-2-azaspiro[4.5]dec-8-yl]-N^4-(1-methoxypropan-2-yl)-1H-imidazole-4,5-dicarboxamide] | 16 |
| 0.028 | 4.4 | O=C(N[C@H]1CC[C@@]2(CCN(c3cccc(Cl)c3)C2=O)CC1)c1[nH]cnc1C(=O)N1CCOCC1 [Example 286, N-[(trans)-2-(3-chlorophenyl)-1-oxo-2-azaspiro[4.5]dec-8-yl]-4-(morpholin-4-ylcarbonyl)-1H-imidazole-5-carboxamide] | ≥ 50 |
| 0.0014 | 0.0028 | CNC(=O)c1nc[nH]c1C(=O)N[C@H]1CC[C@@]2(CCN(c3cc(C)c(F)cc3Cl)C2=O)CC1 [Example 288, N^5-[(trans)-2-(2-chloro-4-fluoro-5-methylphenyl)-1-oxo-2-azaspiro[4.5]dec-8-yl]-N^4-methyl-1H-imidazole-4,5-dicarboxamide] | 20 |
| 0.0018 | 0.0029 | CCNC(=O)c1nc[nH]c1C(=O)N[C@H]1CC[C@@]2(CCN(c3cc(C)c(F)cc3Cl)C2=O)CC1 [Example 289, N^5-[(trans)-2-(2-chloro-4-fluoro-5-methylphenyl)-1-oxo-2-azaspiro[4.5]dec-8-yl]-N^4-ethyl-1H-imidazole-4,5-dicarboxamide] | 16 |
| 0.0047 | 0.0017 | Cc1cc(N2CC[C@]3(CC[C@@H](NC(=O)c4[nH]cnc4C(=O)NCCN4CCC(C)CC4)CC3)C2=O)c(Cl)cc1F [Example 290, N^5-[(trans)-2-(2-chloro-4-fluoro-5-methylphenyl)-1-oxo-2-azaspiro[4.5]dec-8-yl]-N^4-[2-(4-methylpiperidin-1-yl)ethyl]-1H-imidazole-4,5-dicarboxamide] | 16 |
| 0.0069 | 0.0076 | Cc1cc(N2CC[C@]3(CC[C@@H](NC(=O)c4[nH]cnc4C(=O)NCC(F)(F)F)CC3)C2=O)c(Cl)cc1F [Example 297, N^5-[(trans)-2-(2-chloro-4-fluoro-5-methylphenyl)-1-oxo-2-azaspiro[4.5]dec-8-yl]-N^4-(2,2,2-trifluoroethyl)-1H-imidazole-4,5-dicarboxamide] | 9.3 |
| 0.0049 | 0.002 | O=C(N[C@H]1CC[C@@]2(CCN(c3cc(F)c(F)cc3Cl)C2=O)CC1)c1cnc2cccnn12 [Example 298, N-[(trans)-2-(2-chloro-4,5-difluorophenyl)-1-oxo-2-azaspiro[4.5]dec-8-yl]imidazo[1,2-b]pyridazine-3-carboxamide] | ≥ 50 |

More lines, now with the values behind:

| Structure (SMILES) | IC50 [1] [µM] | IC50 (TNKS2) [µM] | IC50 [2] [µM] |
| --- | --- | --- | --- |
| O=C(NC[C@H]1CCCO1)c1nc[nH]c1C(=O)N[C@H]1CC[C@H](C(=O)Nc2ccc(F)cc2Cl)CC1 [Example 80, N^5-{trans-4-[(2-chloro-4-fluorophenyl)carbamoyl]cyclohexyl}-N^4-[(2R)-tetrahydrofuran-2-ylmethyl]-1H-imidazole-4,5-dicarboxamide] | 0.09 | 0.05 | 23 |
| COC(C)CNC(=O)c1nc[nH]c1C(=O)N[C@H]1CC[C@H](C(=O)Nc2ccc(F)cc2Cl)CC1 (stereo partly drawn) [Example 81, N^5-{trans-4-[(2-chloro-4-fluorophenyl)carbamoyl]cyclohexyl}-N^4-(2-methoxypropyl)-1H-imidazole-4,5-dicarboxamide] | 0.15 | 0.072 | 6.8 |
| COCC(C)NC(=O)c1nc[nH]c1C(=O)N[C@H]1CC[C@H](C(=O)Nc2ccc(F)cc2Cl)CC1 (stereo partly drawn) [Example 82, N^5-{trans-4-[(2-chloro-4-fluorophenyl)carbamoyl]cyclohexyl}-N^4-(1-methoxypropan-2-yl)-1H-imidazole-4,5-dicarboxamide] | 0.38 | 0.25 | ≥ 50 |
| COC[C@H](C)NC(=O)c1nc[nH]c1C(=O)N[C@H]1CC[C@H](C(=O)Nc2ccc(F)cc2Cl)CC1 [Example 83, N^5-{trans-4-[(2-chloro-4-fluorophenyl)carbamoyl]cyclohexyl}-N^4-[(2S)-1-methoxypropan-2-yl]-1H-imidazole-4,5-dicarboxamide] | 0.24 | 0.27 | 29 |
| COC[C@@H](C)NC(=O)c1nc[nH]c1C(=O)N[C@H]1CC[C@H](C(=O)Nc2ccc(F)cc2Cl)CC1 [Example 84, N^5-{trans-4-[(2-chloro-4-fluorophenyl)carbamoyl]cyclohexyl}-N^4-[(2R)-1-methoxypropan-2-yl]-1H-imidazole-4,5-dicarboxamide] | 0.23 | 0.23 | ≥ 50 |
| COC(C)(C)CNC(=O)c1nc[nH]c1C(=O)N[C@H]1CC[C@H](C(=O)Nc2cc(F)c(F)cc2Cl)CC1 [Example 85, N^5-{trans-4-[(2-chloro-4,5-difluorophenyl)carbamoyl]cyclohexyl}-N^4-(2-methoxy-2-methylpropyl)-1H-imidazole-4,5-dicarboxamide] | 0.13 | 0.023 | 24 |
| O=C(NCC1CCCO1)c1nc[nH]c1C(=O)N[C@H]1CC[C@H](C(=O)Nc2cc(F)c(F)cc2Cl)CC1 (stereo partly drawn) [Example 86, N^5-{trans-4-[(2-chloro-4,5-difluorophenyl)carbamoyl]cyclohexyl}-N^4-(tetrahydrofuran-2-ylmethyl)-1H-imidazole-4,5-dicarboxamide] | 0.094 | 0.022 | 14 |
| COCC(C)NC(=O)c1nc[nH]c1C(=O)N[C@H]1CC[C@H](C(=O)Nc2cc(F)c(F)cc2Cl)CC1 (stereo partly drawn) [Example 87, N^5-{trans-4-[(2-chloro-4,5-difluorophenyl)carbamoyl]cyclohexyl}-N^4-(1-methoxypropan-2-yl)-1H-imidazole-4,5-dicarboxamide] | 0.06 | 0.051 | ≥ 50 |
| CNC(=O)c1nc[nH]c1C(=O)N[C@H]1CC[C@H](C(=O)Nc2cc(N3CCOCC3)ccc2Cl)CC1 [Example 88, N^5-(trans-4-{[2-chloro-5-(morpholin-4-yl)phenyl]carbamoyl}cyclohexyl)-N^4-methyl-1H-imidazole-4,5-dicarboxamide] | 2.4 | 7.1 | ≥ 50 |
| O=C(NCC1CCCO1)c1nc[nH]c1C(=O)N[C@H]1CC[C@H](C(=O)Nc2cc(N3CCOCC3)ccc2Cl)CC1 (stereo partly drawn) [Example 89, N^5-(trans-4-{[2-chloro-5-(morpholin-4-yl)phenyl]carbamoyl}cyclohexyl)-N^4-(tetrahydrofuran-2-ylmethyl)-1H-imidazole-4,5-dicarboxamide] | 1.2 | 1.6 | 24 |
